Common to all, as to experiment: Large panel kinase profiling
Type in all cases: biochemical
Conditions in all cases: 1 μM test article, 1 mM ATP

Assay [1] has as its target T1, MAPK8/JNK1 (Homo sapiens, UniProt P45983).
T1 construct: AssayQuant Technologies, Inc. (service provider)
As for the experimental part:
(§1) Large panel kinase profiling was performed at AssayQuant Technologies, Inc. 260 Cedar Hill Street, Marlborough, Mass. 01752 using the PhosphoSens® CSox-Sensor platform using 1 μM test article concentration and 1 mM ATP concentration (www.assayquant.com). Reactions were run in Corning, half-area 96-well, white flat round bottom polystyrene NBS microplates (Cat. #3642) after sealing using optically-clear adhesive film (TopSealA-Plus plate seal, PerkinElmer), applied with either a roller or a paddle to eliminate evaporation and resulting drift. The standard total reaction volume was 50 μL. All experiments were ran at 30° C. to control for fluctuations in ambient temperature. Plates were read from the top in kinetic mode (readings taken every 1 min), monitoring fluorescence intensity with filters using Ex 360 nm and Em 485 nm and a band width of 40 and 20 nm, respectively, and a gain of 80. Data analysis was performed using either Graphpad Prism or Gene Data Screener software.

In assay [2] the target is T2, LATS2 (Homo sapiens, UniProt Q9NRM7).
T2 sequence (Q9NRM7 1-1088): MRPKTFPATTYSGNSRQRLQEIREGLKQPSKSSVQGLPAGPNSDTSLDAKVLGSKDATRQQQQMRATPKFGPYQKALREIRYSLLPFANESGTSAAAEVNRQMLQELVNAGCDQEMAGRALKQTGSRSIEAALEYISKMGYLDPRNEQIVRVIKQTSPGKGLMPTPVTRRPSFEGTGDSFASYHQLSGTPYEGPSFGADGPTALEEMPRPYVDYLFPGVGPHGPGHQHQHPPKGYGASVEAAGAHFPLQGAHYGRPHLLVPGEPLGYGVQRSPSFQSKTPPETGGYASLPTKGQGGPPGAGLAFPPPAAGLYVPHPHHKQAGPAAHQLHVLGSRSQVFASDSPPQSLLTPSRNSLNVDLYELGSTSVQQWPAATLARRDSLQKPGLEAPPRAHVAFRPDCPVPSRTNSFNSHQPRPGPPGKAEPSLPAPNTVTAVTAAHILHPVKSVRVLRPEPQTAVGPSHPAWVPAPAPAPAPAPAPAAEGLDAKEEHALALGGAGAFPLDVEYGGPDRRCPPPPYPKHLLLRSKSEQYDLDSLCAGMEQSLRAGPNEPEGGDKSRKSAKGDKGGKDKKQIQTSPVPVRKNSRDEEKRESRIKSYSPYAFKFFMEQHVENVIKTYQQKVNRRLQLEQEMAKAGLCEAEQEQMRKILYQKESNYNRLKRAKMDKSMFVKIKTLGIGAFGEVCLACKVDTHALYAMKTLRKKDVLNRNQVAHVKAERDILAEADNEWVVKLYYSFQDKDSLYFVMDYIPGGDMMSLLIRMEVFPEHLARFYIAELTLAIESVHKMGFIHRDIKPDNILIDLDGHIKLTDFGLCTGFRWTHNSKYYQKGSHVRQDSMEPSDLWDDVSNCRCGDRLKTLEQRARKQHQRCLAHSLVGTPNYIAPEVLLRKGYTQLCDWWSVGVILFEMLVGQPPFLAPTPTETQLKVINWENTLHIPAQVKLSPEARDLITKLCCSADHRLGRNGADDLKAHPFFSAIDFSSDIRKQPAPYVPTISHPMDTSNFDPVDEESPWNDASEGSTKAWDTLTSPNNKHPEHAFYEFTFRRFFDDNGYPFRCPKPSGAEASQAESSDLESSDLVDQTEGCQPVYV
As for the experimental part:
as §1

The target of assay [3] is T3, PRKCZ/PKCZ (Homo sapiens, UniProt Q05513).
T3 sequence (Q05513 1-592): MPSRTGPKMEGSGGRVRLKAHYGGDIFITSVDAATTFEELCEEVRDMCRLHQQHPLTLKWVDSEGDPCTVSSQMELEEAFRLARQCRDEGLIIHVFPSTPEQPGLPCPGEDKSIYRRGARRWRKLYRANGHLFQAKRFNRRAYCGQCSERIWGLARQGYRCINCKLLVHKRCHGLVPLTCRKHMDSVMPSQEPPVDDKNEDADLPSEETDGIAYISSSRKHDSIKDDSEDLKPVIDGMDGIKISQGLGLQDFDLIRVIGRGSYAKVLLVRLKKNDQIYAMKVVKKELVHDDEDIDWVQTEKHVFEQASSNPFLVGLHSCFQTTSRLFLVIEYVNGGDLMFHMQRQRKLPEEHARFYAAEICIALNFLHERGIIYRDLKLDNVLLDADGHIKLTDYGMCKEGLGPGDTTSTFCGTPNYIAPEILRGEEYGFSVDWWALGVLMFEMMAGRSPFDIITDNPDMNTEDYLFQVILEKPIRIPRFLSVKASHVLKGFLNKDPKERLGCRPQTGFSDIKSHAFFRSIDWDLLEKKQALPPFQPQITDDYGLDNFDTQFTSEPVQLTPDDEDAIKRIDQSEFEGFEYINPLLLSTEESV
As to the method: as §1

Assay [4] has as its target T4, HIPK2 (Homo sapiens, UniProt Q9H2X6).
T4 construct: AssayQuant Technologies, Inc. (service provider)
As for the experimental part:
as §1

Assay [5] concerns the target LYNB (Homo sapiens, UniProt P07948). As for the experimental part: as §1
The target in assay [6] is T5, BMX (Homo sapiens, UniProt P51813).
T5 sequence (P51813 1-675): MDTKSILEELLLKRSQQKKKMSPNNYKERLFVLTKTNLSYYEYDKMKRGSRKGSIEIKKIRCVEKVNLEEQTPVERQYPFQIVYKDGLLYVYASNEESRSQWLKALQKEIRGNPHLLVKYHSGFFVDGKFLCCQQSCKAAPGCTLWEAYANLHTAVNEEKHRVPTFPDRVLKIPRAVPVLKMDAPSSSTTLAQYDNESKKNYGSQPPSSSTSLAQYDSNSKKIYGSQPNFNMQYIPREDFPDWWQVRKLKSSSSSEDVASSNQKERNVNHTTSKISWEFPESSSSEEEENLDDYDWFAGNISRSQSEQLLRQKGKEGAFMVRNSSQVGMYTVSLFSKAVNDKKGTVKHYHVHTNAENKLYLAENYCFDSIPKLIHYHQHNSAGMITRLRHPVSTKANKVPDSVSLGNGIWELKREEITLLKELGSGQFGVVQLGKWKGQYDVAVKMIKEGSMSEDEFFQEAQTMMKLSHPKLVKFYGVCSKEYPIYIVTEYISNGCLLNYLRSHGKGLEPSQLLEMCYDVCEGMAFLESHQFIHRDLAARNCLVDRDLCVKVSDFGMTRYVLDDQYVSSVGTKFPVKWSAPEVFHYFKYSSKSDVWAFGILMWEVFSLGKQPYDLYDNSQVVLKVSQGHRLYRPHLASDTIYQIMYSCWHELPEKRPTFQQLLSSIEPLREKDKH
As for the experimental part: as §1

Assay [7] deals with PRKCQ/PKCQ (Homo sapiens, UniProt Q04759). As for the experimental part: as §1
PRKCQ/PKCQ, sequence (Q04759 whole entry): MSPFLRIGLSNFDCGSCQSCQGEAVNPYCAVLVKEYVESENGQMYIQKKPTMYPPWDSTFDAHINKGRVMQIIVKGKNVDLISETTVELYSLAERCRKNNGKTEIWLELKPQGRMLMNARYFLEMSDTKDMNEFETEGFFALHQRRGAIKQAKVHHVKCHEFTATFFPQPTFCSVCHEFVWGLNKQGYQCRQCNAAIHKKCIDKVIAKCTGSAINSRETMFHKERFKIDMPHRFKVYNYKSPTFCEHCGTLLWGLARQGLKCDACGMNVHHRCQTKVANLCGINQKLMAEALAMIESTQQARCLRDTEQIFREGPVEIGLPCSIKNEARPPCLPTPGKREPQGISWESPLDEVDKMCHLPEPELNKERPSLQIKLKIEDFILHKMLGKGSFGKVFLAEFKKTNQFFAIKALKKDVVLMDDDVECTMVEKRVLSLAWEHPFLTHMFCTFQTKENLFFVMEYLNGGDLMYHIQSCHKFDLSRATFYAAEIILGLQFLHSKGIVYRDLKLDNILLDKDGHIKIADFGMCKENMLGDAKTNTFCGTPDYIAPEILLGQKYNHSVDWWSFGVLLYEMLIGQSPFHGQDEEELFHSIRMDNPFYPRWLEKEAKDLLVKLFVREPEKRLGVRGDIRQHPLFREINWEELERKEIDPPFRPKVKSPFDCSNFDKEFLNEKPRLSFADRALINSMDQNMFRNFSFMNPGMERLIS

T4 sequence (Q9H2X6 whole entry, species assumed): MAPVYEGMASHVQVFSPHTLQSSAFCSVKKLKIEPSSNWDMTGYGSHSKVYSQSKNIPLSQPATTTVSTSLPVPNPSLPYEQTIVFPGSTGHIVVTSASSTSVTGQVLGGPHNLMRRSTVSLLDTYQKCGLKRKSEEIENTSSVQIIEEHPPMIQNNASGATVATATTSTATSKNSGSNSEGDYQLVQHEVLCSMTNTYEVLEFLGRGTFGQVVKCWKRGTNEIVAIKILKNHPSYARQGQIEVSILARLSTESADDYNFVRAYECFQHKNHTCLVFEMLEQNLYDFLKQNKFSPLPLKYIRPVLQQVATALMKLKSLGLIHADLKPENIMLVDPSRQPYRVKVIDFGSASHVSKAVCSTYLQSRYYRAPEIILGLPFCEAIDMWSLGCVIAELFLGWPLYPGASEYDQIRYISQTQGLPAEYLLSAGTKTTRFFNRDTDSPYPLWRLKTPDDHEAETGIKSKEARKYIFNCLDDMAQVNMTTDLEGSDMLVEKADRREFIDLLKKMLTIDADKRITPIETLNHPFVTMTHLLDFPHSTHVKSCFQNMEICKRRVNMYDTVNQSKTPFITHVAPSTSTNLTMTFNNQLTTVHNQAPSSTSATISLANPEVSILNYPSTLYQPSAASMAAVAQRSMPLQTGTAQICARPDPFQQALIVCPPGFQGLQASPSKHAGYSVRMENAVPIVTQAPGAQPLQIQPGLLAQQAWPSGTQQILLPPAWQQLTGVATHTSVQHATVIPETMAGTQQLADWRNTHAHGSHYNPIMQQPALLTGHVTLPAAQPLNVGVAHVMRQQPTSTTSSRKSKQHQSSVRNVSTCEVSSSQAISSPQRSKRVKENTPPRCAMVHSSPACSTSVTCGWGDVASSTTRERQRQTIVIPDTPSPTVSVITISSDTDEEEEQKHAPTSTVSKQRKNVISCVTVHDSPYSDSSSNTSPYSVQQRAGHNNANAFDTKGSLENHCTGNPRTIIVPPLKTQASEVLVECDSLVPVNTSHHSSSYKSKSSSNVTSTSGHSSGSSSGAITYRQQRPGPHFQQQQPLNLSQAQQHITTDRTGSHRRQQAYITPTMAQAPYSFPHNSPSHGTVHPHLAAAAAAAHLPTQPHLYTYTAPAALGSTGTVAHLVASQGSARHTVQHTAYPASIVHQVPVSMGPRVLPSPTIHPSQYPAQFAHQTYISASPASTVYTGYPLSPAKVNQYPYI
LYNB, sequence (P07948 1-491 isoform P07948-2, species assumed): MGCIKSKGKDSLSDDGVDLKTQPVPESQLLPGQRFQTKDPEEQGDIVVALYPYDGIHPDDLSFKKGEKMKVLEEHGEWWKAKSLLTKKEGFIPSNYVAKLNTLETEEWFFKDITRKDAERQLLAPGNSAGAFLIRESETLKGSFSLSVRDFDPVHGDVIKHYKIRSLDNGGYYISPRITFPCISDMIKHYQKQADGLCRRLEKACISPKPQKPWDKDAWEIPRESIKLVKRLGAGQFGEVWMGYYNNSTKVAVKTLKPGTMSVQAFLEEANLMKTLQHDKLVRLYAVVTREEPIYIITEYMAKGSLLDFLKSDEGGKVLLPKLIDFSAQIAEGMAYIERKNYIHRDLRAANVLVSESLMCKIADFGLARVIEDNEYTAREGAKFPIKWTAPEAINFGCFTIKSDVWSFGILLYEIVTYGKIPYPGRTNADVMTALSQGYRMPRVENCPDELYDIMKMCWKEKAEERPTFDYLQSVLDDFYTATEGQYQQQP
T1 sequence (P45983 whole entry): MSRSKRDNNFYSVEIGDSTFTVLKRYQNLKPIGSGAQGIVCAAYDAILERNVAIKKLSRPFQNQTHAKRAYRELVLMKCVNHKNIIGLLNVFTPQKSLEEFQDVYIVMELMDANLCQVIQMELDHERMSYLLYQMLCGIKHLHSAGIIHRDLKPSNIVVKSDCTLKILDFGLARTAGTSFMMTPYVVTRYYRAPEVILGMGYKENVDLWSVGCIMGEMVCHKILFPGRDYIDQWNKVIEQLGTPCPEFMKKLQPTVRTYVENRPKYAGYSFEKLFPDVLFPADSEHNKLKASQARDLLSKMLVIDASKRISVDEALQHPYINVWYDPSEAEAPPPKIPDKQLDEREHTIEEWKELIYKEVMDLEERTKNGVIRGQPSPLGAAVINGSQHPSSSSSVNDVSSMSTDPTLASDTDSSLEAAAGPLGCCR

Take `C=CC(=O)N1CCCC(c2c(F)cc(C(N)=O)c3[nH]c4c(c23)CCCCC4)C1` (single isomer, unassigned) [Compound 5-6]: the inhibition (in general, the relative decrease from the control value, in per cent) at 1 µM in assay [1] is -0.6%; in assay [2] it was 6.3%; in assay [3] it was -4%; in assay [4] it was -18.6%; in assay [5], 8.9%; in assay [6], 42%. In addition, the inhibition at 1 µM in assay [7] is -3.7%.
`C=CC(=O)N1CCC[C@@H](c2c(F)cc(C(N)=O)c3[nH]c4c(c23)CC2(CC4)CC2)C1` [Compound 6-2, (S)-5-(1-acryloylpiperidin-3-yl)-6-fluoro-1,2,4,9-tetrahydrospiro[carbazole-3,1′-cyclopropane]-8-carboxamide]: the inhibition at 1 µM was 21.7% in assay [1]; 1.5% in assay [2]; 8.5% in assay [3]; -55.4% in assay [4]; 28.9% in assay [5]; 86% in assay [6]. Besides, in assay [7], the inhibition at 1 µM turned out to be 0.7%.
With `C=CC(=O)N1CCC[C@@H](c2c(F)cc(C(N)=O)c3[nH]c4c(c23)CCC4)C1` [Compound 10-2, (S)-8-(1-acryloylpiperidin-3-yl)-7-fluoro-1,2,3,4-tetrahydrocyclo-penta[b]indole-5-carboxamide], the inhibition at 1 µM was 13.6% in assay [1]; -0.7% in assay [2]; -4.2% in assay [3]; -66.1% in assay [4]; 23.2% in assay [5]; 65.2% in assay [6]. In assay [7], the inhibition at 1 µM is -72.5%.

Values taken from US20220009920A1 (GB005, Inc., priority 2020, published 2022).
